Results published in paper PMC4992173, “Divergent synthesis and identification of the cellular targets of deoxyelephantopins” (Nature Communications, 2016).

Key:
PPARγ [1] = biological target: T1, PPARγ (Homo sapiens, UniProt P37231); assay: Detection of a covalent adduct on human PPARγ (LC-MS/MS); format: binding; parameters: purchased Cayman Chemical; conditions: 100 μM, 1 h, tryptic digest LC-MS/MS
T1 sequence (P37231 1-505): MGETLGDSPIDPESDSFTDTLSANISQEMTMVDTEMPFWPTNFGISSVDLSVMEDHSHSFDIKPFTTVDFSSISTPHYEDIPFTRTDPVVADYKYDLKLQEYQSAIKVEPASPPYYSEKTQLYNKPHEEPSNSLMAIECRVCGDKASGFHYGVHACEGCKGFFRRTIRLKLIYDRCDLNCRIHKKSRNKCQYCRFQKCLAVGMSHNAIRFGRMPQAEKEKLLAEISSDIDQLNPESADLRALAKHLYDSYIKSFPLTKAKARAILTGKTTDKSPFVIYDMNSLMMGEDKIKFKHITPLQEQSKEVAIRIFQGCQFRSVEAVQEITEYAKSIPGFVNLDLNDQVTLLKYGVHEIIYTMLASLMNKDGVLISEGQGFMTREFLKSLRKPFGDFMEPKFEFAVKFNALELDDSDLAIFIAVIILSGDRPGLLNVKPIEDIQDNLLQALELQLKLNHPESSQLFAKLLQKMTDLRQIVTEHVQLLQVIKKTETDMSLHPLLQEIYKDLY
Source text: Finally, we sought to understand the molecular basis for PPARγ binding by the synthetic analogues of deoxyelephantopin through identification of the precise covalently modified amino acid site. There is literature precedent for oxidized fatty acids containing an α,β-unsaturated ketone to form a covalent bond with a cysteine in the ligand-binding site of PPARγ[53]. More recently, synthetic ligands binding reversibly to a distinct site were identified. […] Bearing in mind that the structurally simplified, and thus less prone to MS/MS fragmentation, probe 23c binds PPARγ as efficiently as 24c (Supplementary Fig. 13), we treated the recombinant nuclear receptor with the former compound, digested the protein and analysed the resulting peptides by LC–MS/MS. […]
Recombinant human PPARγ (500 ng in 9 μl PBS) was treated with 100 μM of 23c (1 μl of 10 × stock in DMSO) or DMSO for 1 h. […] Samples were resuspended in 0.1% FA in water and analysed by LC–MS/MS. The theoretical mass of the 23c adduct was calculated and LC–MS/MS was run with an inclusion list containing m/z and charge of the expected peptides. MS data were analysed in MaxQuant with 23c (+256.1099 Da) and carbamidomethylation as variable modifications on cysteine. […]

[2] = Cell viability in MCF7 cells, compounds at 1 μM for 3 days; format: cell-based; conditions: human, 1 μM concentration, read-out: cellular viability
Protocol: We began our biological investigations by assaying the cytotoxicity of natural deoxyelephantopin (DEP) and its unnatural analogues in four different cancer cell lines (Fig. 5a, Supplementary Figs 6–8).
Supplementary figure 8: Cell viability measurements in MCF7 cells. All compounds were tested at 1 μM concentration for 3 days (values±SD are shown; n = 3).
Supplementary figure 9: Propidium iodide and DAPI staining of MCF7 cells treated with either DMSO, 10% ethanol (necrosis positive control) or 20 µM DEP for 8 h. Scale bar […]
Biological materials. All materials were purchased from Sigma Aldrich unless otherwise stated. DMEM/High glucose media, phosphate buffered saline (PBS), MEM Non-Essential Amino Acids, Penicillin-Streptomycin (Pen/Strep) and Trypsin-EDTA were obtained from Life Technologies. Protein concentration was determined using the Bradford assay (Bio-Rad).
Cell culture and preparation of lysates. […] Cells were lysed by sonication to form cell lysates and protein concentration was determined using the Bradford […]
’ cells/mL and HeLa: 1 ’ cells/mL) in a 96-well plate and allowed to attach overnight. […] Cells were imaged using a SpectraMax i3 plate reader equipped with a SpectraMax MiniMax imaging cytometer (Molecular Devices). […]
Caspase activity labeling for fluorescence cell imaging. […]

PPARγ [3] = conditions: cited from earlier work

| Structure (SMILES) | protein site covalently modified (PPARγ [1]) | viability at 3 days, 1 µM [2] [%] | action on PPARγ (SPR) (PPARγ [3]) |
| --- | --- | --- | --- |
| C#CCC[C@H](O)[C@H]1C(=C)C(=O)O[C@@H]1c1ccccc1 [23c] | Cys190 |  |  |
| C=C(C)C(=O)O[C@H]1CC2=C[C@@H](C/C(C)=C/[C@H]3OC(=O)C(=C)[C@H]13)OC2=O [deoxyelephantopin] |  | < 30 | partial agonist |
